Measured values reported in paper PMC8546892 (Acta Pharmaceutica Sinica. B, 2021).
Residues, ends and D or L forms follow the SMILES beside them. *: point of attachment. Cbz = O=C(OCc1ccccc1)*

System: GSK-3β
Experiment: Immunoblot of GSK-3β in Trib3-silenced AMs with MG132 or 3MA
Type: cell-based, mouse
Conditions: immunoblots, Fig. S4C

CC(C)C[C@@H](C=O)NC(=O)[C@H](CC(C)C)NC(=O)[C@H](CC(C)C)NC(=O)OCc1ccccc1 [MG132] (Cbz-Leu-Leu-Leu-aldehyde)
Trib3 depletion-induced reduction in GSK-3β expression: reversed
